Data on two compounds can be found in patent US10399968B2, “Hydroxyalkyl thiadiazole derivatives” (Daiichi Sankyo Company, Limited, priority 2015, dated 2019).

≈ marks a conversion by molar mass, not a printed value.

The subject of one series is Staphylococcus aureus. Description: Neutropenic mouse thigh or calf muscle infection model. The settings on record: neutropenic mice, compared with linezolid. It is filed as in vivo. An excerpt:
After culture in broth medium (i) suitable diluent of a bacterial suspension of the Staphylococcus aureus strain, or (ii) equivalent mixture of suitable diluent of a bacterial suspension of the Enterococcus faecium strain and a 10% mucin suspension were used as the inoculum. The bacterial suspension was inoculated under anesthesia with a ketamine-xylazine mixture into the thigh or calf muscle of Swiss albino mice or ICR mice (4- to 6-week-old) compromised by the cyclophosphamide administration. The drug was administered to the mice 1 to 8 times at an interval of 3 to 24 hours. The number of bacteria in the thigh or calf muscle was counted for the non-treated group immediately before initial administration of the drug (pre-control), for the non-treated group (post-control) and for the drug-administered group on the next day of administration of the drug and infection. A change in the number of bacteria in the thigh or calf muscle was used as an index of therapeutic effect.

The target in series [1] is Clostridium difficile DNA gyrase (Clostridioides difficile, UniProt Q18C89). Kind of series: DNA supercoiling inhibition assay. The settings on record: supercoiling of relaxed pBR322 DNA, 60 minutes at 37° C. It is filed as biochemical. The gist of the method: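 Relaxed pBR322 (400 ng) supercoiled by C. difficile gyrase for 60 min at 37 °C in Tris-HCl pH 7.5 with 6 mM MgCl2, 70 mM KCl, compounds added from 20% DMSO. Products resolved on 1.0% agarose, EtBr-stained; supercoiled band intensity quantified and IC50 fitted.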
Clostridium difficile DNA gyrase, sequence (Q18C90 entry or part of it): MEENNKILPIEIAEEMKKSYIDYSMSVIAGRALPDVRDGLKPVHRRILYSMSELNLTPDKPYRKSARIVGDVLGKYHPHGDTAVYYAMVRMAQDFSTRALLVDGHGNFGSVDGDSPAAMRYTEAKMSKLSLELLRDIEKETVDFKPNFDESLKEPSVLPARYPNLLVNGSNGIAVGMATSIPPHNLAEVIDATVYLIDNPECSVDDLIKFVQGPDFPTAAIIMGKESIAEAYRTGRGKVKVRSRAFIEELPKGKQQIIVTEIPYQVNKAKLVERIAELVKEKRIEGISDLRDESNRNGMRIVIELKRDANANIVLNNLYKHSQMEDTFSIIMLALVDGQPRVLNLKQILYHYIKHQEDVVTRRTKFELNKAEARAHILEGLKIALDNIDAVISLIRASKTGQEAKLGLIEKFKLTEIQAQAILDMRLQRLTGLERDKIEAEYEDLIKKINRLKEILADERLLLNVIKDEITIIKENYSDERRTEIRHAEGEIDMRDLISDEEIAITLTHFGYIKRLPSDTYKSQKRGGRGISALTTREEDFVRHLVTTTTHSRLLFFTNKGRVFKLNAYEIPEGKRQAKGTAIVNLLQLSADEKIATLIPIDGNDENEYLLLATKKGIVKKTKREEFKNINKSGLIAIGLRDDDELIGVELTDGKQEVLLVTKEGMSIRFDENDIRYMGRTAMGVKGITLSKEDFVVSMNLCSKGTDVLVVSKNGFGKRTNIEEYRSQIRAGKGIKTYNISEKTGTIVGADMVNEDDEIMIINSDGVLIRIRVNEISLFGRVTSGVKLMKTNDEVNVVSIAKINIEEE
Clostridium difficile DNA gyrase, sequence (Q18C89 entry or part of it): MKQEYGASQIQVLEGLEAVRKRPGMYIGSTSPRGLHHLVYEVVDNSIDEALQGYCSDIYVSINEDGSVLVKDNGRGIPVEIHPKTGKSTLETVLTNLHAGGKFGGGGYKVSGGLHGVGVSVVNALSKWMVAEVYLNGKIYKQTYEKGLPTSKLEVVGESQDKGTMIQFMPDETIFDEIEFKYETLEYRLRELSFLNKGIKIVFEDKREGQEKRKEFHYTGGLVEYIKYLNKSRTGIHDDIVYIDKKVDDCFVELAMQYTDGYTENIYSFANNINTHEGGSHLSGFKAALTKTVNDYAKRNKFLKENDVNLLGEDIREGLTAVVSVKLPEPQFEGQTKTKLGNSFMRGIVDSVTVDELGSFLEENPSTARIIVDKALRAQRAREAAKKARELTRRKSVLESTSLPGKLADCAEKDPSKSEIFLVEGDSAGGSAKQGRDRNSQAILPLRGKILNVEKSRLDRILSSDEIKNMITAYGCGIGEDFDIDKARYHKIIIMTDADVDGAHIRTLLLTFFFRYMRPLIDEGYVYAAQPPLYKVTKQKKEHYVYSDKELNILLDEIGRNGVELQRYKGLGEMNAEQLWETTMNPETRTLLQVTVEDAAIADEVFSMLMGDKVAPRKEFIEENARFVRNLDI

Series [2] has as its system Clostridium difficile 2009155, a NAP1/027 strain. Description: Hamster CDI model. It is filed as in vivo. The settings on record: 0.3 mg/kg/day by oral route, 5 days. As to the method: The in vivo efficacy of test compounds were evaluated in a hamster CDI model caused by Clostridium difficile 2009155, a NAP1/027 strain. Syrine hamsters (6-8-weeks old) were primed with a single subcutaneous injection of clindamycin (30 mg/kg) 1-5 days prior to infection. Hamsters were infected by oral gavage with 1 ml of spore suspension ([…]) prepared in PBS. The drug was administered to the hamsters 6 hours post infection by oral or subcutaneous route at an interval of 24 hours for 5 days. The death and survival of the non-treated group and the drug-administered group were recorded once daily for 35 days.

Series [3] is described as follows: Oral bioavailability (BA) in rats. Conditions: male, SD, blood; Rat, 2 mg/kg oral vs jugular vein. It is filed as in vivo. As for the experimental part:
To SD male rats (7 week-old) fasted overnight, a solution of the test compound Captisol® was administered into the jugular vein (3 animals) and a solution of Lutrol® F68 was administered orally (3 animals). The dose of the test compounds was 2 mg/kg body weight of the rat for both administration routes. The amount of Captisol® used was 0.36 mg/kg body weight of the rat. The amount of Lutrol® F68 used was 0.02 mg/kg body weight of the rat. The BA value was calculated by the formula below using the integration value (AUCiv(0-∞)) of the blood concentration extrapolated from time 0 to infinity after administration of both test compounds. The greater a BA value of the compound shown, the higher the oral bioavailability is.

Series [4] relates to Clostridium difficile ATCC 43255. Kind of series: Susceptibility of Clostridium difficile, agar dilution MIC. The settings on record: Clostridioides difficile, ATCC43255, anaerobic. It is filed as cell-based. The gist of the method:
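Agar dilution per CLSI M11-A8 on supplemented Brucella agar containing compound dilutions. Inoculum from 0.5 McFarland suspension, 1-2 μL spots; anaerobic incubation at 36° C for 42 to 48 hours. MIC read by eye as the concentration giving marked growth reduction versus compound-free anaerobic control plates.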
For orientation: In agar dilution the substance is mixed into plates at graded concentrations.

The next series concerns S. aureus ATCC 29213. Kind of series: Susceptibility of bacteria, broth microdilution MIC. It is filed as cell-based. The settings on record: Staphylococcus aureus, ATCC29213. Summed up:
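CLSI M7-A7 broth microdilution with 2-fold serial compound dilutions; inoculum from 0.5 McFarland suspension diluted 10-fold, 4 μL per well. Incubated 35 °C for about 20 h; MIC is the lowest concentration preventing visible growth.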

For `CCc1[nH]c(C(=O)N[C@@H]2CCN(c3nnc(C(C)(C)O)s3)C[C@@H]2OC)nc1Cl` [Compound No. 2, 4-Chloro-5-ethyl-N-{(3S,4R)-1-[5-(2-hydroxypropan-2-yl)-1,3,4-thiadiazol-2-yl]-3-methoxypiperidin-4-yl}-1H-imidazole-2-carboxamide], in the series with Staphylococcus aureus, the “therapeutic effect against Staphylococcus aureus (number of bacteria in thigh or calf muscle)” value is given as “equivalent to or higher than linezolid”. In addition, in series [1], the IC50 (commonly the concentration at which inhibition is half-maximal) is 46.6 nM. The “survival on day 35” value in series [2] is 100%. Moreover, in series [3], the bioavailability (usually the share of a dose that reaches the circulation, judged against a reference dose that is usually intravenous) was determined as 98%. The MIC – broadly, the least concentration at which growth counts as inhibited – worked out at 0.06 µg/mL (≈ 0.14 µM) in series [4] and 0.25 µg/mL (≈ 0.583 µM) with S. aureus ATCC 29213.

`CCc1[nH]c(C(=O)N[C@@H]2CCN(c3nnc([C@H](C)O)s3)C[C@@H]2OC)nc1Cl` (single isomer, unassigned) [Compound No. 5]: in the series on Staphylococcus aureus, the “therapeutic effect against Staphylococcus aureus (number of bacteria in thigh or calf muscle)” value is “equivalent to or higher than linezolid”. Inhibition in series [1] was half-maximal at 21.7 nM (IC50). Moreover, in series [2], the “survival on day 35” value turned out to be 100%. The same compound displayed a bioavailability in series [3] of 60%. In addition, the MIC in series [4] amounted to 0.125 µg/mL (≈ 0.301 µM); in the series with S. aureus ATCC 29213, 0.5 µg/mL (≈ 1.21 µM).
